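Step 1: Grow cells in 96-well plates. Step 2: Expose to compound for 48 hours at 5 concentrations. Step 3: Interpolate endpoints linearly; if unreached, use highest concentration. GI50 marks 50% less growth. TGI denotes the concentration required for complete inhibition of growth.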
How the values were obtained:
Assay in all cases: NCI anticancer screen, dose series, 48 h
[1] = tested on: HL-60(TB) leukemia
[2] = tested on: MCF7 breast
[3] = tested on: OVCAR-4 ovarian
[4] = tested on: OVCAR-8 ovarian
[5] = tested on: RPMI-8226 leukemia
[6] = tested on: SF-539 CNS
[7] = tested on: SK-MEL-5 melanoma
[8] = tested on: SN12C renal
[9] = tested on: SNB-75 CNS
[10] = tested on: TK-10 renal

Compound	GI50 [1] [µM]	TGI [1] [µM]	GI50 [2] [µM]	TGI [2] [µM]	GI50 [3] [µM]	TGI [3] [µM]	GI50 [4] [µM]	TGI [4] [µM]	GI50 [5] [µM]	TGI [5] [µM]	GI50 [6] [µM]	TGI [6] [µM]	GI50 [7] [µM]	TGI [7] [µM]	GI50 [8] [µM]	TGI [8] [µM]	GI50 [9] [µM]	TGI [9] [µM]	GI50 [10] [µM]	TGI [10] [µM]
O=C(COc1cccc(/C=C2\CSc3ccccc3C2=O)c1)c1ccc(Cl)cc1	3.57	> 21	0.458	1.81	3.09	> 42.1	2.53	6.81	> 100	> 100	3.05	8.22	1.8	3.41	2.54	8.47	5.04	22.4	1.88	4.42
C[C@H](N)C(=O)N1C[C@H](CCCB(O)O)[C@](N)(C(=O)O)C1	> 100	> 100	> 100	> 100	–	–	> 100	> 100	> 100	> 100	> 100	> 100	> 100	> 100	> 100	> 100	> 100	> 100	> 100	> 100
CCOC(=O)Nc1nc2c(C)cccc2s1	29.9	> 100	29.2	> 100	43.2	> 100	52.8	> 100	31.4	> 100	77.7	> 100	28	91.5	44.7	> 100	30.9	> 100	90.9	> 100
C=C1C[C@@]2(C)C(CC[C@]3(C)C2CC=C2C4CC(C)(C)C[C@@H](OC(=O)/C(C)=C\C)[C@]4(C(=O)O)CC[C@]23C)C(C)(C)C1=O (stereo not given in full)	2.56	7.08	4.06	19.2	4.76	18.2	3.75	27.5	1.42	5.69	2.75	8.55	3.35	11.2	3.22	15.2	–	–	4.57	17.9
NS(=O)(=O)c1ccc(NC(=O)c2cccc3cc4ccccc4nc23)cc1	–	> 100	–	> 100	–	> 100	–	> 100	–	> 100	–	> 94.3	–	> 100	–	> 100	–	> 100	–	> 91.2
Cc1c(N=Cc2ccc(N(CCC#N)CCC#N)cc2)c(=O)n(-c2ccccc2)n1C	–	> 100	–	> 100	–	> 100	–	> 100	–	> 100	–	86.5	–	> 100	–	> 100	–	60.1	–	62.1
OCC(O)C(O)C(O)/C=N/Nc1nc2ccccc2nc1-c1ccccc1 (stereo not given)	5.15	> 100	97.9	> 100	28.3	72.2	91.1	> 100	85.3	> 100	20.5	> 100	48.5	> 100	> 100	> 100	> 100	> 100	> 100	> 100
Nc1nc(-c2cccc([N+](=O)[O-])c2)cc(-c2cc(-c3cccc([N+](=O)[O-])c3)nc(N)n2)n1	–	> 100	–	> 100	–	> 100	–	> 100	–	> 100	–	> 100	–	> 100	–	> 100	–	–	–	> 100
OCc1ccc(N(CCN2CCCC2)Cc2ccc(F)cc2)cc1Cl	25.1	64.8	13.7	32.1	11.1	> 100	14	30.3	18.5	47.4	16.4	31.2	15	28.4	34.8	> 100	12.5	35.3	15	34.8
CCCN(CCSSCCNc1nc(N(C)O)nc(N(C)O)n1)c1nc(N(C)O)nc(N(C)O)n1	3.31	> 100	4.68	> 100	3.29	> 100	5.26	> 100	4.48	> 100	4.05	> 100	8.65	> 100	9.84	> 100	24.4	> 100	3.25	> 100
CN(C)CCCn1c2nc(=O)[nH]c(=O)c-2nc2cc(Cl)c(Cl)cc21	3.83	9.97	0.398	1.64	6.3	18.8	3.16	10.6	3.25	12.9	3.24	12.2	1.65	3.12	3.09	10.1	18	32.5	4.62	14.1
NC1=Nc2cc(OCCCN3Cc4ccccc4C3)c(OCC3CC3)cc2C12CCCC2	2.03	4.69	1.8	4.03	3.55	16.6	3.71	13.9	1.75	4.51	1.7	3.17	1.67	3.04	3.85	15.2	1.07	7.97	2.31	8.16
Fc1ccc2[nH]cc(SSc3c[nH]c4ccc(F)cc34)c2c1	1.83	6.57	3.87	20	3.87	18.2	5.73	42.8	1.5	6.46	3.77	14.7	5.13	18.3	–	–	3.12	15.9	10.1	24.6
COc1ccccc1-c1cc(=O)c2ccc(OC)c(OC)c2o1	–	> 100	–	> 100	–	> 100	–	> 100	–	> 100	–	> 100	–	> 100	–	> 100	–	> 100	–	> 100
COc1cc(OC)c(C(=O)/C=C/c2cccc(OC(C)=O)c2)cc1CC=C(C)C	13.3	> 50	2.54	44	5.73	> 50	8.38	> 50	8.94	33.7	8.62	16.2	6.47	13.3	9.87	> 50	4.68	11.8	23.6	> 50
O=C1NN(c2ccccc2)C(=O)/C1=C/c1ccc(Br)o1	10.5	> 81.1	3.54	18.9	15.3	29.5	11	41.6	0.777	10.9	20.5	41.9	1.26	2.05	0.951	21.3	24.3	58.6	13.2	33.7
COc1ccc(OC)c2c(=S)c3ccccc3[nH]c12	–	57.6	–	> 100	–	> 100	–	> 100	–	> 100	–	> 100	–	70.1	–	> 100	–	> 100	–	100
COc1ccc2c(c1)C1(C(=O)N2)C(C#N)=C(c2ccccc2)Nc2c1c(-c1ccccc1)nn2-c1ccccc1 (stereo not given)	3.68	15.4	2.09	6.79	1.77	3.5	3.54	12.7	4.07	17.8	1.75	3.65	2.4	6.62	1.94	3.71	1.39	3.43	2.41	7.49
CCNCCCn1c2c(c3ccc([N+](=O)[O-])cc3c1=O)C(=O)c1cc(OC)cnc1-2	0.037	0.657	0.0186	1.37	0.176	1.49	0.0519	0.479	0.0813	0.976	0.0696	0.579	0.078	0.234	0.0531	1.08	0.126	1.54	0.294	1.47
C=C1C(=O)O[C@H]2[C@H]1CC/C(COC(=O)c1ccccc1)=C\CC[C@@]1(C)O[C@@H]21	0.981	3.95	0.497	2.04	2.64	9.87	2.28	9.28	0.375	2.44	0.662	2.1	1.63	3.03	1.39	3.26	5.7	18.7	2.03	3.98
COc1cc2c(cc1OCCCCOc1ccc(-c3nc4ccccc4s3)cc1)N=C[C@@H]1CCCN1C2=O	0.384	16.5	0.625	4.34	1.24	9.02	1.19	7.98	0.337	1.42	0.768	2	0.667	1.85	1.13	4	1.26	2.63	1.21	5.17
COc1ccc2c(c1)/C(=N/OC(C)=O)c1c-2c(=O)[nH]c2ccccc12	1.83	4.88	66.3	> 100	4.88	21.3	14.7	31.8	5.12	21.8	16.9	46.4	5.79	19.4	16.2	31	11.1	25.9	15.2	58
COc1ccc2c(c1)/C(=C/c1cc(OC)c(OC)c(OC)c1)C(=O)N2C	1.46	5.28	1.83	> 25.8	4.66	> 77.5	4.21	> 74.8	1.59	4.43	2.21	5.92	2.76	12.6	3.44	> 44.5	2.29	> 21.4	3.56	> 31.6
CC1(C)CC2(C)CC1CC2NC(=O)CCN1CCOCC1 (stereo not given)	–	> 100	–	> 100	–	> 100	–	> 100	–	–	–	> 100	–	> 100	–	> 100	–	> 100	–	> 100
O=C(Nc1cccc(-n2cc(-c3ccncc3)c(-c3ccc(O)c(Cl)c3)n2)c1)Nc1cccc(C(F)(F)F)c1	2.83	7.49	2.15	6.59	–	–	2.41	11.1	1.77	5.13	1.64	5.18	1.59	3.01	2.86	> 100	1.43	9.75	3.29	9.3
CCSc1nnc(-c2ccc3ccccc3c2O)n1-c1ccc(Cl)cc1	7.16	> 100	6.66	> 100	5.71	> 100	5.5	> 100	4.83	> 100	> 100	> 100	6.01	> 100	> 100	> 100	65.1	> 100	–	–
N#C/C(=C\c1ccc(Br)cc1)n1nnc2ccccc21	0.287	2.04	0.303	6.2	1.5	5.25	0.788	13.6	0.475	3.31	0.513	1.86	0.999	2.32	0.525	3.48	–	–	2.69	6.8
O=C(CC1C=CCS1(=O)=O)NCc1ccccc1 (stereo not given)	–	> 100	–	> 100	–	> 100	–	> 100	–	–	–	> 100	–	> 100	–	> 100	–	> 100	–	> 100

From PubChem BioAssay (NCI)
